Test results published in article PMC6499206, “Quantification of Volatile Metabolites Derived From Garlic (Allium sativum) in Human Urine” (Frontiers in Nutrition, 2019).

Test: Quantification of garlic-derived metabolites in human urine after ingestion of 3 g raw garlic (SIDA, SAFE, HRGC-MS / HRGC-GC-MS)
Type: in vivo
Settings: for metabolite concentration in urine / metabolite concentration in urine, creatinine-normalized: 3 g raw garlic
Excerpt: Human urine samples were obtained from 18 volunteers (age 22–38 years, mean 27 years; 11 females, 7 males); thereby, one volunteer conducted the whole experimental series twice. At the time of examination, volunteers reported no known illness that might have potentially influenced the metabolism or the excretion of urine. The test persons were instructed to avoid foods that were rich in sulfur-containing substances at the testing day as well as 2 days preceding the testing day, namely garlic, onion, wild garlic, chives, cabbage, and leek, and were only allowed to consume the garlic sample provided in the course of the experiments. Additionally, subjects were asked to keep records of the food (including food supplements) and beverages they consumed during these 3 testing days. Generally, the overall panelists' requirements were in accordance with our previous studies ([5], [16]).
On the sampling day, the outer garlic cloves of a whole garlic bulb were peeled and cut into ~3 mm cubes by using a garlic cutter (Genius GmbH, Limburg/Lahn, Germany). Subsequently these cubes were thoroughly mixed and aliquoted into 3 g portions. Three to four test persons conducted the experiment at the same day. Each test person was asked to ingest a garlic portion of 3 g. In total, eight consecutive urine samples were provided by each test person, comprising one whole urine set. The samples were collected in sterile brown glass bottles, with sampling times as follows: one sample was provided directly prior to garlic consumption. The series of the second to eighth sample was then obtained at about 0.5, 1, 2, 4, 6, 8, and 24 h after garlic consumption, respectively. Between the first urine sample (prior to garlic consumption) and the seventh urine sample (8 h after garlic consumption) test persons only spent urine at the specific time points mentioned before. Another sample was provided at the next morning (24 h after garlic consumption). Between the samples provided 8 and 24 h after garlic consumption no urine was collected. All samples were immediately placed into a −80°C freezer and were kept frozen until further analysis.
The samples of each set were termed according to their sampling time. The following list provides the time intervals that are related to the respective sample name: • - pre: before garlic consumption • - 0.5 h post: 0.4–0.8 h after garlic consumption • - 1 h post: 0.9–1.3 h after garlic consumption • - 2 h post: 1.8 h−2.2 h after garlic consumption • - 4 h post: 3.8–4.4 h after garlic consumption • - 6 h post: 5.8–6.4 h after garlic consumption • - 8 h post: 7.8–8.4 h after garlic consumption • - 24 h post: 23.8–25.6 h after garlic consumption
A creatinine kit (Labor+Technik Eberhard Lehmann GmbH, Berlin, Germany) was used to determine the creatinine content in each urine sample. The determination principle of this kit is based on the reaction of creatinine with picric acid under basic conditions (Jaffé reaction). The formed complex was detected photometrically at a wavelength of 492 nm.
For quantification purposes, the deuterated standards ^2H3-AMS, ^2H3-AMSO, and ^2H3-AMSO2 were added to the sample and stirred for 10 min. Subsequently, DCM was added in a ratio of 1:2 (DCM/human urine; v/v) and this solution was stirred for further 30 min at room temperature. To isolate the volatile fraction from the urine samples we then applied SAFE-distillation ([17]), thereby distilling the respective samples at 50°C. After completion of the distillation process, 10 mL of DCM were applied in each case to rinse the SAFE apparatus and to ensure complete transition of the volatile compounds. This process was repeated with another 10 mL of DCM. After thawing, the obtained aqueous distillate phase was extracted three times with 25 mL DCM. The organic phases were combined, dried over anhydrous Na2SO4 and concentrated to a total volume of 100 μL by means of Vigreux distillation and subsequent micro-distillation at 50°C. […]

- concentration in urine compared with human milk (3 g raw garlic in both studies, milk data ref 20): about three times as high
- metabolite concentration in urine (U I, 0.5 h post (0.55 h)): 168.4 µg/kg
- metabolite concentration in urine, creatinine-normalized (U I, 0.5 h post (0.55 h)): 23.6 µg/mmol creatinine
- metabolite concentration in urine (U I, 1 h post (1.03 h)): 191.0 µg/kg
- metabolite concentration in urine, creatinine-normalized (U I, 1 h post (1.03 h)): 205.9 µg/mmol creatinine
- metabolite concentration in urine (U I, 2 h post (2.05 h)): 227.6 µg/kg
- metabolite concentration in urine, creatinine-normalized (U I, 2 h post (2.05 h)): 112.5 µg/mmol creatinine
- metabolite concentration in urine (U I, 4 h post (4.05 h)): 165.7 µg/kg
- metabolite concentration in urine, creatinine-normalized (U I, 4 h post (4.05 h)): 19.1 µg/mmol creatinine
- metabolite concentration in urine (U I, 6 h post (6.05 h)): 119.1 µg/kg
- metabolite concentration in urine, creatinine-normalized (U I, 6 h post (6.05 h)): 13.2 µg/mmol creatinine
- metabolite concentration in urine (U I, 8 h post (8.05 h)): 41.8 µg/kg
- metabolite concentration in urine, creatinine-normalized (U I, 8 h post (8.05 h)): 5.8 µg/mmol creatinine
- metabolite concentration in urine (U I, 24 h post (25.55 h)): 1.6 µg/kg
- metabolite concentration in urine, creatinine-normalized (U I, 24 h post (25.55 h)): 0.3 µg/mmol creatinine
- metabolite concentration in urine (U I, pre (-0.03 h)): < LOD^2
- metabolite concentration in urine, creatinine-normalized (U I, pre (-0.03 h)): < LOD^2
- metabolite concentration in urine (U II, 0.5 h post (0.50 h)): 147.7 µg/kg
- metabolite concentration in urine, creatinine-normalized (U II, 0.5 h post (0.50 h)): 14.0 µg/mmol creatinine
- metabolite concentration in urine (U II, 1 h post (1.00 h)): 133.4 µg/kg
- metabolite concentration in urine, creatinine-normalized (U II, 1 h post (1.00 h)): 51.2 µg/mmol creatinine
- metabolite concentration in urine (U II, 2 h post (2.00 h)): 63.7 µg/kg
- metabolite concentration in urine, creatinine-normalized (U II, 2 h post (2.00 h)): 62.6 µg/mmol creatinine
- metabolite concentration in urine (U II, 4 h post (4.00 h)): 64.8 µg/kg
- metabolite concentration in urine, creatinine-normalized (U II, 4 h post (4.00 h)): 12.0 µg/mmol creatinine
- metabolite concentration in urine (U II, 6 h post (6.00 h)): 33.4 µg/kg
- metabolite concentration in urine, creatinine-normalized (U II, 6 h post (6.00 h)): 3.7 µg/mmol creatinine
- metabolite concentration in urine (U II, 8 h post (8.00 h)): 15.2 µg/kg
- metabolite concentration in urine, creatinine-normalized (U II, 8 h post (8.00 h)): 1.8 µg/mmol creatinine
- metabolite concentration in urine (U II, 24 h post (24.12 h)): traces^2
- metabolite concentration in urine, creatinine-normalized (U II, 24 h post (24.12 h)): traces^2
- metabolite concentration in urine (U II, pre (-0.13 h)): < LOD^2
- metabolite concentration in urine, creatinine-normalized (U II, pre (-0.13 h)): < LOD^2
- metabolite concentration in urine (U III, 0.5 h post (0.53 h)): 124.4 µg/kg
- metabolite concentration in urine, creatinine-normalized (U III, 0.5 h post (0.53 h)): 74.5 µg/mmol creatinine
- metabolite concentration in urine (U III, 1 h post (1.07 h)): 136.4 µg/kg
- metabolite concentration in urine, creatinine-normalized (U III, 1 h post (1.07 h)): 192.7 µg/mmol creatinine
- metabolite concentration in urine (U III, 2 h post (2.18 h)): 214.7 µg/kg
- metabolite concentration in urine, creatinine-normalized (U III, 2 h post (2.18 h)): 133.1 µg/mmol creatinine
- metabolite concentration in urine (U III, 4 h post (4.35 h)): 123.7 µg/kg
- metabolite concentration in urine, creatinine-normalized (U III, 4 h post (4.35 h)): 47.0 µg/mmol creatinine
- metabolite concentration in urine (U III, 6 h post (6.35 h)): 62.3 µg/kg
- metabolite concentration in urine, creatinine-normalized (U III, 6 h post (6.35 h)): 12.2 µg/mmol creatinine
- metabolite concentration in urine (U III, 8 h post (8.43 h)): 29.0 µg/kg
- metabolite concentration in urine, creatinine-normalized (U III, 8 h post (8.43 h)): 5.2 µg/mmol creatinine
- metabolite concentration in urine (U III, 24 h post (23.90 h)): 3.0 µg/kg
- metabolite concentration in urine, creatinine-normalized (U III, 24 h post (23.90 h)): 0.5 µg/mmol creatinine
- metabolite concentration in urine (U III, pre (-0.03 h)): 4.6 µg/kg
- metabolite concentration in urine, creatinine-normalized (U III, pre (-0.03 h)): 0.8 µg/mmol creatinine
- metabolite concentration in urine (U IV, 0.5 h post (0.55 h)): 144.3 µg/kg
- metabolite concentration in urine, creatinine-normalized (U IV, 0.5 h post (0.55 h)): 30.7 µg/mmol creatinine
- metabolite concentration in urine (U IV, 1 h post (1.05 h)): 141.0 µg/kg
- metabolite concentration in urine, creatinine-normalized (U IV, 1 h post (1.05 h)): 117.5 µg/mmol creatinine
- metabolite concentration in urine (U IV, 2 h post (2.12 h)): 129.7 µg/kg
- metabolite concentration in urine, creatinine-normalized (U IV, 2 h post (2.12 h)): 82.3 µg/mmol creatinine
- metabolite concentration in urine (U IV, 4 h post (4.05 h)): 108.9 µg/kg
- metabolite concentration in urine, creatinine-normalized (U IV, 4 h post (4.05 h)): 22.6 µg/mmol creatinine
Compound: C=CC[S+](C)[O-] (stereo not drawn) [AMSO, allyl methyl sulfoxide]
